Tests used:
[1] = molecular target: T1, human RORγt (Ligand Binding Domain) (Homo sapiens, UniProt P51449); assay: Fluorescence Polarization (FP) Assay; details: Fluorescence Polarization (FP) Assay; values given as upper bounds of activity ranges; read-out: FP activity range
T1 construct: purchased Crelux (Planegg, Germany) batch no PC5032-1
T1 sequence (P51449 269-508 limits assumed): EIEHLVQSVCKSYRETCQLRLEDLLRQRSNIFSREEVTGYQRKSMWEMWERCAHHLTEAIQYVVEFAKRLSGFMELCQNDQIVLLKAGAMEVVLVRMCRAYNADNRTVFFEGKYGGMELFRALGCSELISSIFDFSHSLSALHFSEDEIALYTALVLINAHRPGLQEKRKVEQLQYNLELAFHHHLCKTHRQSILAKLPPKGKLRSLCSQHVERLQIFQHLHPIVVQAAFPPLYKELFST
Procedure, shortened: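 In vitro FP binding assay monitoring ligand binding within the ligand binding pocket. Probe is a TAMRA-labelled RORγt ligand (MW 910 g/mole); DMSO served as negative control.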

[2] = tested on: Th17 cells; assay: Th17 Assay (IL-17 levels in supernatants by ELISA); format: cell-based; details: Homo sapiens; read-out: Th17 activity range @ 1 μM (% inhibition)
Method: The activity of the compounds was evaluated using a Fluorescence Polarization (FP) Assay and, in most cases, a Th17 Assay and/or RORγ Reporter assay (also referred to as Gal4 assay). The FP assay is an in vitro assay monitoring binding within the ligand binding pocket. The RORγ and the Th17 assays are both cell-based assays monitoring functional activity of the compound assayed.
Human peripheral blood mononuclear cells (PBMCs) were isolated from buffy coats of healthy human volunteers using the Ficoll paque PLUS kit (GE Healthcare, cat no 17-1440-02), as instructed by the manufacturer. Naive CD4+ T cells were isolated with Naive CD4+ T cell kit, human (Milteny Biotec, cat no 130-094-131). The following modifications were made to the manufacturer's protocol: 1) Incubation with Biotin-Antibody Cocktail and Anti-Biotin MicroBeads was prolonged to 30 minutes, and 2) Cells were washed with 40 mL of Miltenyi buffer. Differentiation of Th17 cells in anti-CD3 (BD Pharmingen, 5 μg/ml) coated 96-well plates (400,000 cells/well, 160 μl RPMI 1640+10% Fetal Bovine Serum) containing 5 μg/ml anti-CD28 (BD Pharmingen), 10 ng/ml IL-2 (R&D Systems), 2.5 ng/ml TGFβ-1 (R&D Systems), 20 ng/ml IL-1β (R&D Systems), 20 ng/ml IL-6 (R&D Systems), 30 ng/ml IL-23 (R&D Systems), 2.5 μg/ml anti-IL-4 (R&D Systems) and 1 μg/ml anti-IFNγ (R&D Systems) and with test compound during the entire differentiation (or vehicle, 0.1% DMSO for control). Test compounds were tested in triplicates, diluted 1000-fold in medium (final DMSO concentration is 0.1%). Incubated for seven days at 37° C., 5% CO2, 95% humidity, and 2-fluoro-4′-[[4-(4-pyridinylmethyl)-1-piperazinyl]methyl]-α,α-bis(trifluoromethyl)-[1,1′-biphenyl]-4-methanol (SR2211 Calbiochem, Cat. No. 557353) was used as positive control. As negative control, cells were differentiated into Th0 using 5 μg/ml anti-CD28 (BD Pharmingen), 10 ng/ml IL-2 (R&D Systems), 2 μg/ml anti-IL4 (R&D Systems) and 2 μg/ml anti-IFNγ (R&D Systems) are negative control. IL-17 levels in supernatants were measured with ELISA (R&D Systems).

[3] = molecular target: T2, yeast Gal4-DNA binding domain fused to the ligand binding domain of human RORγ (Homo sapiens, UniProt P51449); assay: RORγ Reporter Assay (Gal4); format: cell-based; details: values given as lower bounds of ranges; for Gal4 activity range @ 0.1 μM (% inhibition): RORγ Reporter Assay (Gal4) at 0.1 μM; for Gal4 activity range @ 1 μM (% inhibition): RORγ Reporter Assay (Gal4) at 1 μM
T2 construct: host or cells: HEK293t
T2 sequence (P51449 269-508 limits assumed): T1 sequence (P51449 269-508 limits assumed)
Procedure, shortened: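 HEK293t reporter cells expressing the hybrid, with Gal4-UAS-driven firefly luciferase, treated in triplicate with compound at 1,000 nM and 100 nM (0.1% DMSO) in medium with 10% charcoal-stripped FBS for 24 h at 37 °C. Luminescence read; percent reduction of RLU calculated relative to vehicle.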

Row | IC50 [1] [nM] | Gal4 activity range @ 0.1 μM (% inhibition) [3] [% inhibition] | Gal4 activity range @ 1 μM (% inhibition) [3] [% inhibition] | SMILES | inhibition at 1 µM [2] [%]
1 | < 1000 |  |  | COc1ccc(C[C@H](CO)Nc2ncnc(N3CCCC3c3ccc(C(F)(F)F)cc3)c2F)cc1 (stereo partly drawn) [Example 29, (2R)-2-[[5-fluoro-6-[2-[4-(trifluoromethyl)phenyl]pyrrolidin-1-yl]pyrimidin-4-yl]amino]-3-(4-methoxyphenyl)propan-1-ol] | > 50
2 | < 500 | >20 | >80 | O=C(O)Cc1ccc(CNc2ncnc(N3CCOCC3c3ccc(OC(F)(F)F)cc3)c2F)cc1 (stereo not shown) [Example 91, 2-[4-[[[5-fluoro-6-[3-[4-(trifluoromethoxy)phenyl]morpholin-4-yl]pyrimidin-4-yl]amino]methyl]phenyl]acetic acid] | > 80
3 | < 500 | >20 | >80 | Cc1ccc(CNc2ncnc(N3CCCC3c3ccc(C(F)(F)F)cc3)c2F)cn1 (stereo not shown) [Example 89, 5-fluoro-N-[(6-methyl-3-pyridyl)methyl]-6-[2-[4-(trifluoromethyl)phenyl]pyrrolidin-1-yl]pyrimidin-4-amine] | > 20
4 |  |  |  | O=C(O)Cc1ccc(COc2ncnc(NCc3ccc(C(F)(F)F)cc3)c2F)cc1 [Example 83, 2-[4-[[5-fluoro-6-[[4-(trifluoromethyl)phenyl]methylamino]pyrimidin-4-yl]oxymethyl]phenyl]acetic acid] | > 20
5 |  |  |  | CC(C)C[C@@H](Oc1ncnc(N2CCC[C@@H]2c2ccc(C(F)(F)F)cc2)c1F)C(N)=O (single isomer, unassigned) [Example 77, (2R)-2-[5-fluoro-6-[(2R)-2-[4-(trifluoromethyl)phenyl]pyrrolidin-1-yl]pyrimidin-4-yl]oxy-4-methyl-pentanamide or (2R)-2-[5-fluoro-6-[(2S)-2-[4-(trifluoromethyl)phenyl]pyrrolidin-1-yl]pyrimidin-4-yl]oxy-4-methyl-pentanamide] | > 50
6 | < 10000 |  |  | CC(C)C[C@@H](Nc1ncnc(N2CC(C)CC2c2ccc(C(F)(F)F)cc2)c1F)C(=O)O (stereo partly drawn) [Example 33, (2R)-2-[[5-fluoro-6-[4-methyl-2-[4-(trifluoromethyl)phenyl]pyrrolidin-1-yl]pyrimidin-4-yl]amino]-4-methyl-pentanoic acid] | > 20
7 |  |  |  | CC(C)C[C@@H](Oc1ncnc(-n2nccc2-c2ccc(C(F)(F)F)cc2)c1F)C(N)=O [Example 80, (2R)-2-[5-fluoro-6-[5-[4-(trifluoromethyl)phenyl]pyrazol-1-yl]pyrimidin-4-yl]oxy-4-methyl-pentanamide] | > 50
8 | < 2000 |  |  | CC(C)(C)C[C@@H](Nc1ncnc(N2CCCC2c2ccc(C(F)(F)F)cc2Cl)c1F)C(=O)O (stereo partly drawn) [Example 36, (2R)-2-[[6-[2-[2-chloro-4-(trifluoromethyl)phenyl]pyrrolidin-1-yl]-5-fluoro-pyrimidin-4-yl]amino]-4,4-dimethyl-pentanoic acid] | > 50
9 | < 10000 |  |  | CC(C)(C)C[C@@H](Nc1nc(C(F)(F)F)nc(N2CCCC2c2ccc(C(F)(F)F)cc2)c1F)C(N)=O (stereo partly drawn) [Example 13, (2R)-2-[[5-fluoro-2-(trifluoromethyl)-6-[2-[4-(trifluoromethyl)phenyl]pyrrolidin-1-yl]pyrimidin-4-yl]amino]-4,4-dimethyl-pentanamide] | > 20
10 | < 500 |  |  | CC1CC(c2ccc(C(F)(F)F)cc2)N(c2ncnc(N[C@H](CC(C)(C)C)C(N)=O)c2F)C1 (stereo partly drawn) [Example 18, (2R)-2-[[5-fluoro-6-[4-methyl-2-[4-(trifluoromethyl)phenyl]pyrrolidin-1-yl]pyrimidin-4-yl]amino]-4,4-dimethyl-pentanamide] | > 80
11 | < 500 |  |  | CC(C)(C)C[C@@H](Nc1ncnc(N2CCCC2c2ccc(C(F)(F)F)cc2Cl)c1F)C(N)=O (stereo partly drawn) [Example 35, (2R)-2-[[6-[2-[2-chloro-4-(trifluoromethyl)phenyl]pyrrolidin-1-yl]-5-fluoro-pyrimidin-4-yl]amino]-4,4-dimethyl-pentanamide] | > 50
12 | < 500 |  |  | CC(C)(C)C[C@@H](Nc1ncnc(N2CCCC2c2ccc(C(C)(C)C)cc2)c1F)C(N)=O (stereo partly drawn) [Example 19, (2R)-2-[[6-[2-(4-tert-butylphenyl)pyrrolidin-1-yl]-5-fluoro-pyrimidin-4-yl]amino]-4,4-dimethyl-pentanamide] | > 80
13 |  |  |  | COC(C)(C)CC(C)Nc1ncnc(N2CCCC2c2ccc(C(F)(F)F)cc2)c1F (stereo not shown) [Example 16, 5-fluoro-N-(3-methoxy-1,3-dimethyl-butyl)-6-[2-[4-(trifluoromethyl)phenyl]pyrrolidin-1-yl]pyrimidin-4-amine] | > 0
14 | < 500 |  |  | N#Cc1ccc(CNc2ncnc(N3CCCC3c3ccc(C(F)(F)F)cc3)c2F)cc1 (stereo not shown) [Example 88, 4-[[[5-fluoro-6-[2-[4-(trifluoromethyl)phenyl]pyrrolidin-1-yl]pyrimidin-4-yl]amino]methyl]benzonitrile] | > 80
15 | < 2000 |  |  | CC1CCN(c2ncnc(N[C@H](CC(C)(C)C)C(N)=O)c2F)C1c1ccc(C(F)(F)F)cc1 (stereo partly drawn) [Example 38, (2R)-2-[[5-fluoro-6-[3-methyl-2-[4-(trifluoromethyl)phenyl]pyrrolidin-1-yl]pyrimidin-4-yl]amino]-4,4-dimethyl-pentanamide] | > 50
16 | < 1000 |  |  | NC(=O)Cc1ccc(CNc2ncnc(N3CCCC3c3ccc(C(F)(F)F)cc3)c2F)cc1 (stereo not shown) [Example 40, 2-[4-[[[5-fluoro-6-[2-[4-(trifluoromethyl)phenyl]pyrrolidin-1-yl]pyrimidin-4-yl]amino]methyl]phenyl]acetamide] | > 80
17 | < 500 | >80 | >80 | O=S(=O)(NC1CC1)c1ccc(CNc2ncnc(N3CCOC[C@@H]3c3ccc(C(F)(F)F)cc3)c2F)cc1 [Example 236, N-cyclopropyl-4-[[[5-fluoro-6-[(3S)-3-[4-(trifluoromethyl)phenyl]morpholin-4-yl]pyrimidin-4-yl]amino]methyl] benzenesulfonamide] | 
18 | < 500 | >0 | >50 | CC1CCC(CNc2ncnc(N3CCCC3c3ccc(C(F)(F)F)cc3)c2F)CC1 (stereo not shown) [Example 93, 5-fluoro-N-[(4-methylcyclohexyl)methyl]-6-[2-[4-(trifluoromethyl)phenyl]pyrrolidin-1-yl]pyrimidin-4-amine] | 
19 | < 500 | >50 | >80 | NC(=O)Cc1ccc(CNc2ncnc(N3CC(F)(F)CC3c3ccc(C(F)(F)F)cc3)c2F)cc1 (stereo not shown) [Example 231, 2-[4-[[[6-[4,4-difluoro-2-[4-(trifluoromethyl)phenyl]pyrrolidin-1-yl]-5-fluoro-pyrimidin-4-yl]amino]methyl]phenyl]acetamide] | 
20 | < 10000 |  |  | CC(C)(C)C[C@@H](Nc1cc(N2CCCC2c2ccc(C(F)(F)F)cc2)ncn1)C(N)=O (stereo partly drawn) [Example 6, (2R)-4,4-dimethyl-2-[[6-[2-[4-(trifluoromethyl)phenyl]pyrrolidin-1-yl]pyrimidin-4-yl]amino]pentanamide] | > 20
